According to PubChem BioAssay (NCI):
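Following 48 hours of exposure in 96-well plates, responses at five concentrations were used to interpolate endpoints linearly. The concentration for 50% growth inhibition is given as GI50. TGI denotes the concentration required for complete inhibition of growth.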

Experiments:
Assay in all cases: growth of human tumour cells (NCI), 48 h
786-0 renal = tested on: 786-0 renal
HCT-15 colon = tested on: HCT-15 colon
HS 578T breast = tested on: HS 578T breast
KM12 colon = tested on: KM12 colon
MDA-MB-231 breast = tested on: MDA-MB-231 breast
NCI-H23 lung = tested on: NCI-H23 lung
NCI/ADR-RES ovarian = tested on: NCI/ADR-RES ovarian
OVCAR-4 ovarian = tested on: OVCAR-4 ovarian
SNB-19 CNS = tested on: SNB-19 CNS
HL-60(TB) leukemia = tested on: HL-60(TB) leukemia

| SMILES | TGI (786-0 renal) [µM] | TGI (HCT-15 colon) [µM] | TGI (HS 578T breast) [µM] | TGI (KM12 colon) [µM] | TGI (MDA-MB-231 breast) [µM] | TGI (NCI-H23 lung) [µM] | TGI (NCI/ADR-RES ovarian) [µM] | TGI (OVCAR-4 ovarian) [µM] | TGI (SNB-19 CNS) [µM] | TGI (HL-60(TB) leukemia) [µM] | GI50 (786-0 renal) [µM] | GI50 (HCT-15 colon) [µM] | GI50 (HL-60(TB) leukemia) [µM] | GI50 (KM12 colon) [µM] | GI50 (NCI-H23 lung) [µM] | GI50 (SNB-19 CNS) [µM] | GI50 (HS 578T breast) [µM] | GI50 (MDA-MB-231 breast) [µM] | GI50 (NCI/ADR-RES ovarian) [µM] | GI50 (OVCAR-4 ovarian) [µM] |
| --- | --- | --- | --- | --- | --- | --- | --- | --- | --- | --- | --- | --- | --- | --- | --- | --- | --- | --- | --- | --- |
| Cc1ccc(S(=O)(=O)Nc2ccccc2C(=O)c2ccc(C)c(C)c2)cc1 | > 100 | > 100 | > 100 | > 100 | > 100 | > 100 | > 100 | > 100 | > 100 | – | – | – | – | – | – | – | – | – | – | – |
| COc1cc(OC)cc(-c2cc(=O)c3c(OC)c(OC)c(OC)c(OC)c3o2)c1 | > 100 | > 100 | 90.6 | – | > 100 | > 100 | > 100 | > 100 | > 100 | > 100 | – | – | – | – | – | – | – | – | – | – |
| CC(=O)/C(=C\c1cccc([N+](=O)[O-])c1)C(=O)Nc1ccccc1C | > 100 | > 100 | – | > 100 | – | > 100 | – | > 100 | > 100 | 57.9 | – | – | – | – | – | – | – | – | – | – |
| [Cl-].[La+3].[O-]/N=C(\c1ccccc1)c1ccccn1.[O-]/N=C(\c1ccccc1)c1ccccn1.[O-]/N=C(\c1ccccc1)c1ccccn1 | > 100 | > 100 | – | > 100 | – | > 100 | – | – | > 100 | > 100 | 36 | 30.8 | 33.5 | 82 | 57.1 | 50.5 | – | – | – | – |
| O=C(/C=C/c1ccncc1)c1cc(Cl)ccc1O | 34.1 | 63.8 | > 100 | 32.5 | 42.3 | 38.8 | 66.4 | 88.1 | 40.2 | – | 17.9 | 22.4 | – | 15.7 | 17.2 | 17.7 | 39.5 | 18.6 | 22.7 | 27.3 |
| CC1=CC(O)(c2ccc(-c3ccccc3Cl)cc2)OC1=O (stereo not drawn) | > 100 | > 100 | – | > 100 | – | > 100 | – | > 100 | > 100 | > 100 | – | – | – | – | – | – | – | – | – | – |
| CC(C)=Cc1cc(C(=O)Nc2ccc(Cl)c(Cl)c2)nc(N)n1 | > 100 | > 100 | – | > 100 | – | > 100 | – | > 100 | > 100 | > 100 | – | – | – | – | – | – | – | – | – | – |
| Cc1c2c(nn1-c1ccc(S(=O)(=O)/N=C3\SCCC(=O)N3c3ccccc3)cc1)-c1ccccc1CC2 | > 100 | > 100 | – | > 100 | > 100 | > 100 | > 100 | > 100 | > 100 | > 100 | 81.7 | > 100 | > 100 | > 100 | > 100 | > 100 | – | 35.1 | > 100 | > 100 |
| CCN1c2ccccc2C(C(SC)S(=O)(=O)c2ccc(C)cc2)c2c1[nH]c(=O)n(C)c2=O (stereo not drawn) | > 100 | > 100 | – | > 100 | – | > 100 | – | > 100 | > 100 | > 100 | – | – | – | – | – | – | – | – | – | – |
| O=[N+]([O-])C(/C=C(\Cl)n1nnc2ccccc21)=C(/Cl)n1nnc2ccccc21 | > 100 | > 100 | > 100 | > 100 | > 100 | > 100 | > 100 | > 100 | > 100 | – | – | – | – | – | – | – | – | – | – | – |
